In PubChem BioAssay AID330 (DTP/NCI, 2004):
Several values for one entry are separate records, joined by “and”; a condition that tells them apart may be missing. Equal entries are not always repeated. Toxic doses and inconclusive results are not listed. Rule for the calls: active = survival T/C of 150% or more; inactive = T/C below 125% in these data.

Tested on: P388 leukemia ip, CD2F1 mice, survival T/C
Experiment: NCI In Vivo Anticancer Drug Screen. Data for tumor model P388 Leukemia (intraperitoneal) in CD2F1 (CDF1) mice
Settings: endpoint: median survival time, higher = longer survival
Summary of the method: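 Mice carrying the transplanted tumor received test compound or vehicle. Survival was recorded in each group, and the value is the treated-group measurement divided by that of the vehicle-treated control group.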

[1] = dose: 50.0 mg/kg/injection, schedule: Q01DX009 (ip), vehicle: saline with Tween-80
[2] = dose: 100.0 mg/kg/injection, schedule: Q01DX009 (ip), vehicle: saline with Tween-80
[3] = dose: 200.0 mg/kg/injection, schedule: Q01DX009 (ip), vehicle: saline with Tween-80
[4] = dose: 12.5 mg/kg/injection, schedule: Q01DX005 (ip), vehicle: Klucel (hydroxypropylcellulose) (HPC)
[5] = dose: 25.0 mg/kg/injection, schedule: Q01DX005 (ip), vehicle: Klucel (hydroxypropylcellulose) (HPC)
[6] = dose: 50.0 mg/kg/injection, schedule: Q01DX005 (ip), vehicle: Klucel (hydroxypropylcellulose) (HPC)
[7] = dose: 60.0 mg/kg/injection, schedule: Q01DX005 (ip), vehicle: Klucel (hydroxypropylcellulose) (HPC)
[8] = dose: 120.0 mg/kg/injection, schedule: Q01DX005 (ip), vehicle: Klucel (hydroxypropylcellulose) (HPC)
[9] = dose: 50.0 mg/kg/injection, schedule: Q01DX009 (ip), vehicle: suspension in saline
[10] = dose: 100.0 mg/kg/injection, schedule: Q01DX009 (ip), vehicle: suspension in saline
[11] = dose: 200.0 mg/kg/injection, schedule: Q01DX009 (ip), vehicle: suspension in saline
[12] = dose: 6.25 mg/kg/injection, schedule: Q01DX009 (ip), vehicle: Klucel (hydroxypropylcellulose) (HPC)
[13] = dose: 12.5 mg/kg/injection, schedule: Q01DX009 (ip), vehicle: Klucel (hydroxypropylcellulose) (HPC)
[14] = dose: 25.0 mg/kg/injection, schedule: Q01DX009 (ip), vehicle: Klucel (hydroxypropylcellulose) (HPC)
[15] = dose: 50.0 mg/kg/injection, schedule: Q01DX009 (ip), vehicle: Klucel (hydroxypropylcellulose) (HPC)
[16] = dose: 100.0 mg/kg/injection, schedule: Q01DX009 (ip), vehicle: Klucel (hydroxypropylcellulose) (HPC)
[17] = dose: 200.0 mg/kg/injection, schedule: Q01DX009 (ip), vehicle: Klucel (hydroxypropylcellulose) (HPC)

Measured: T/C

O=C1C=C2C(=CCOC2O)O1 (stereo not given)
inactive: dose: 0.3 mg/kg/injection, schedule: Q01DX009 (ip), vehicle: saline with Tween-80 106 % of control | dose: 0.3 mg/kg/injection, schedule: Q04DX003 (ip), vehicle: saline with Tween-80 106 % of control | dose: 1.0 mg/kg/injection, schedule: Q04DX003 (ip), vehicle: saline with Tween-80 114 % of control | dose: 2.0 mg/kg/injection, schedule: Q01DX009 (ip), vehicle: Klucel (hydroxypropylcellulose) (HPC) 117 % of control and 123 % of control | dose: 4.0 mg/kg/injection, schedule: Q01DX009 (ip), vehicle: Klucel (hydroxypropylcellulose) (HPC) 106 % of control and 123 % of control | dose: 10.0 mg/kg/injection, schedule: Q04DX003 (ip), vehicle: saline with Tween-80 113 % of control

CC(C)=NOc1ccccc1[N+](=O)[O-]
inactive: [1] 111 % of control | [2] 101 % of control | [3] 93 % of control

Cn1ccc(N)nc1=O
inactive: dose: 50.0 mg/kg/injection, schedule: Q01DX005 (ip), vehicle: saline 101 % of control | dose: 100.0 mg/kg/injection, schedule: Q01DX005 (ip), vehicle: saline 107 % of control | dose: 200.0 mg/kg/injection, schedule: Q01DX005 (ip), vehicle: saline 104 % of control

CCOc1ccc(C(/C(Cl)=N/O)C(Cl)(Cl)Cl)cc1 (stereo not given)
inactive: [4] 96 % of control | [5] 91 % of control | [6] 100 % of control

COC(=O)C(CSSCC(C(=O)NC(Cc1ccccc1)C(=O)NCC(=O)OC(C)(C)C)N1C(=O)CCC1=O)NC(=O)OCc1ccccc1 (stereo not given)
inactive: [6] 103 % of control | dose: 100.0 mg/kg/injection, schedule: Q01DX005 (ip), vehicle: Klucel (hydroxypropylcellulose) (HPC) 93 % of control | dose: 200.0 mg/kg/injection, schedule: Q01DX005 (ip), vehicle: Klucel (hydroxypropylcellulose) (HPC) 96 % of control

COC1OCN(C2CCCCC2)CC1(C)C (stereo not given)
inactive: dose: 17.5 mg/kg/injection, schedule: Q01DX009 (ip), vehicle: saline with Tween-80 100 % of control | dose: 35.0 mg/kg/injection, schedule: Q01DX009 (ip), vehicle: saline with Tween-80 104 % of control | dose: 70.0 mg/kg/injection, schedule: Q01DX009 (ip), vehicle: saline with Tween-80 117 % of control

Cc1csc2nc(-c3ccco3)nn12
inactive: [7] 107 % of control | [8] 107 % of control

COCCOC(=O)CCn1nc(-c2ccccc2)c(-c2ccccc2)c(C#N)c1=O
inactive: dose: 100.0 mg/kg/injection, schedule: Q04DX002 (ip), vehicle: saline with Tween-80 104 % of control | dose: 200.0 mg/kg/injection, schedule: Q04DX002 (ip), vehicle: saline with Tween-80 106 % of control | dose: 400.0 mg/kg/injection, schedule: Q04DX002 (ip), vehicle: saline with Tween-80 100 % of control

C/C(=C\c1ccc(OCC(=O)O)c(Cl)c1Cl)[N+](=O)[O-]
inactive: dose: 12.5 mg/kg/injection, schedule: Q01DX001 (ip), vehicle: saline with Tween-80 100 % of control and 102 % of control | dose: 25.0 mg/kg/injection, schedule: Q01DX001 (ip), vehicle: saline with Tween-80 98 % of control and 100 % of control

Cc1cc(NC(=S)SCc2ccc(Cl)cc2)ccc1F
inactive: [9] 109 % of control | [10] 100 % of control | [11] 94 % of control

[Se]=[Mo]=[Se]
inactive: dose: 60.0 mg/kg/injection, schedule: Q01DX005 (ip), vehicle: saline with Tween-80 96 % of control | dose: 120.0 mg/kg/injection, schedule: Q01DX005 (ip), vehicle: saline with Tween-80 95 % of control | dose: 240.0 mg/kg/injection, schedule: Q01DX005 (ip), vehicle: saline with Tween-80 97 % of control

N#CCc1nn(-c2ccccc2)c2ncnc(N)c12
inactive: [12] 103 % of control | [13] 100 % of control and 114 % of control and 94 % of control | [14] 108 % of control and 97 % of control (2×) | [15] 100 % of control and 120 % of control and 98 % of control | [16] 106 % of control

O=S(=O)(OCCF)c1cc(Cl)c(Cl)cc1Cl
inactive: [4] 98 % of control | [5] 98 % of control | [6] 89 % of control

O=C(O)C(Nc1ccccn1)(c1ccccc1)c1ccccc1
inactive: [7] 102 % of control | [8] 102 % of control | dose: 240.0 mg/kg/injection, schedule: Q01DX005 (ip), vehicle: Klucel (hydroxypropylcellulose) (HPC) 98 % of control

COc1cc(C2c3cc4c(cc3C(OC3CCCCO3)C3COC(=O)C23)OCO4)cc(OC)c1OC (stereo not given)
inactive: dose: 3.12 mg/kg/injection, schedule: Q01DX005 (ip), vehicle: Klucel (hydroxypropylcellulose) (HPC) 117 % of control

Cc1cc2nc(N)sc2cc1C
inactive: dose: 12.5 mg/kg/injection, schedule: Q01DX009 (ip), vehicle: saline 98 % of control | dose: 25.0 mg/kg/injection, schedule: Q01DX009 (ip), vehicle: saline 100 % of control | dose: 50.0 mg/kg/injection, schedule: Q01DX009 (ip), vehicle: saline 102 % of control | dose: 100.0 mg/kg/injection, schedule: Q01DX009 (ip), vehicle: saline 102 % of control

Cc1c2c(nn1C)CC(C)(C)OC2=O
inactive: dose: 100.0 mg/kg/injection, schedule: Q01DX001 (ip), vehicle: Klucel (hydroxypropylcellulose) (HPC) 95 % of control | dose: 200.0 mg/kg/injection, schedule: Q01DX001 (ip), vehicle: Klucel (hydroxypropylcellulose) (HPC) 100 % of control | dose: 400.0 mg/kg/injection, schedule: Q01DX001 (ip), vehicle: Klucel (hydroxypropylcellulose) (HPC) 101 % of control

Cc1cc2ncn(C(=O)Nc3ccccc3)c2cc1C
inactive: dose: 100.0 mg/kg/injection, schedule: Q04DX003 (ip), vehicle: saline with Tween-80 100 % of control | dose: 200.0 mg/kg/injection, schedule: Q04DX003 (ip), vehicle: saline with Tween-80 90 % of control | dose: 400.0 mg/kg/injection, schedule: Q04DX003 (ip), vehicle: saline with Tween-80 90 % of control

C/C=C(\C)C(=O)OC1CC(OC(=O)/C(C)=C/C)C2(C)C3C(=O)C=C(C)C2C3C1(C)C (stereo not given)
inactive: [13] 90 % of control | [14] 96 % of control | [15] 96 % of control | [16] 100 % of control

CC(C(=O)O)c1ccc2oc(-c3ccc(Cl)cc3)nc2c1 (stereo not given)
inactive: [9] 104 % of control | [10] 100 % of control | [11] 100 % of control

CSc1ccc(NC(=O)n2nnc3ccccc32)cc1
inactive: [12] 103 % of control and 106 % of control | [13] 102 % of control and 110 % of control | [14] 100 % of control and 111 % of control | [15] 105 % of control and 109 % of control and 120 % of control | [16] 105 % of control and 117 % of control and 124 % of control | [17] 106 % of control and 97 % of control

CSCCC(NP(=S)(c1ccccc1)c1ccccc1)C(=O)O (stereo not given)
inactive: [15] 104 % of control and 107 % of control | [16] 107 % of control | [17] 101 % of control and 94 % of control

CN(C)C(=O)NO
inactive: dose: 60.0 mg/kg/injection, schedule: Q01DX005 (ip), vehicle: saline 103 % of control | dose: 120.0 mg/kg/injection, schedule: Q01DX005 (ip), vehicle: saline 99 % of control | dose: 240.0 mg/kg/injection, schedule: Q01DX005 (ip), vehicle: saline 97 % of control

COC(=O)c1ncn(CCCO)c1O
inactive: dose: 100.0 mg/kg/injection, schedule: Q01DX001 (ip), vehicle: saline 92 % of control | dose: 200.0 mg/kg/injection, schedule: Q01DX001 (ip), vehicle: saline 100 % of control | dose: 400.0 mg/kg/injection, schedule: Q01DX001 (ip), vehicle: saline 104 % of control

Cc1nc2c(c(-c3ccccc3)n1)Cc1c(ccc3ccccc13)O2
inactive: [1] 96 % of control | [2] 102 % of control | [3] 99 % of control | dose: 400.0 mg/kg/injection, schedule: Q01DX009 (ip), vehicle: saline with Tween-80 92 % of control

CCn1nc(C(=O)O)c(=O)c2cc3c(cc21)OCO3
inactive: [15] 96 % of control | [16] 97 % of control | [17] 98 % of control

CC(=O)c1ccc2c(=O)n3c4ccccc4nc3c3cccc1c23
inactive: [1] 118 % of control | [2] 104 % of control

Cc1ccc(NC(=S)NCC2CCCO2)cc1C (stereo not given)
inactive: [15] 102 % of control and 98 % of control | [16] 91 % of control | [17] 92 % of control and 93 % of control and 97 % of control
